Assay results taken from patent US5006517A, “Treatment of Prader-Willi syndrome” (Progenics, Inc., priority 1989, dated 1991).
Like-named read-outs stand apart in the source and are kept apart here.

What was measured:
[1] = in diet, diabetic, genetically obese mice; cited from earlier work
[2] = Interconversion, absorption and circulation of alpha-ET, beta-ET and ET-dione; conditions: for oxidation at the C-3 position to ET-dione: orally or parenterally (i.p., i.m. or i.v.)
Text: This is the subject of U.S. application Ser. No. 078,610, filed July 28, 1987 and incorporated herein by reference.

[3] = normal individuals, endogenous metabolite of DHEA; cited from earlier work
[4] = C57BL/KsJ-db/db mice; cited from earlier work
[5] = Free alpha-ET blood levels after oral suspensions in eight normal human volunteers (crossover, RIA)
Experimental: Each subject received all three drugs in randomized order with a one-week wash-out period between doses. Following an overnight fast, subjects received 200 mg of test drug suspended in approximately 6 oz. of apple juice. Blood samples were drawn immediately prior to drug administration and at 15 minutes, 30 minutes, 1, 2, 4, 8, 12 and 24 hours.

[6] = genetically obese or diabetic mice; cited from earlier work
[7] = genetically obese mice, variety of routes; cited from earlier work
[8] = oral, severely diabetic mammals; cited from earlier work
[9] = Body weight in C57BL/K db/db diabetic mice on ET-dione chow; type: in vivo, mouse (C57BL/K db/db); conditions: for 6 wk gain: 6 weeks
Text: (§1) Eighteen C57BL/K db/db mice were divided into three groups of 5 and one group (control) of 3. This mouse strain is more diabetic and more resistant to weight gain reduction than the mouse species used in Example 1. The mice were weighed and then permitted to consume a commercially-available chow and water ad librium over a six-week study period. At the end of each week, the mice were reweighed and their blood sugar determined. The chow supplied to three of the groups had ET-dione admixed therewith at either a 0.4, 0.6 or 0 8% concentration.

[10] = Blood sugar in C57BL/K db/db diabetic mice on ET-dione chow; type: in vivo, mouse (C57BL/K db/db); design: Blood Sugar: unit not given here
Text: as §1

[11] = A^vy /A mice, 0.4% ET-dione
Text: Inhibition of the development of obesity was studied in two mutant mouse strains used for diabetes evaluation: C57BL/6, C3HeB/FeJ (A^vy /A). […] C57BL/6 mice (Jackson Laboratories, Bar Harbor, ME) display the genetic obesity syndrome markers obese (ob) and diabetes (db) A^vy /A mice (Jackson Laboratories, Bar Harbor, ME) are characterized by mild obesity and an enhanced susceptibility to certain tumors.
days during week 4 and were then returned to the 0.4% dose level.

[12] = rat, before feeding program
Experimental: Food consumption and body weight were measured weekly. […] Liver weight (absolute and % of body weight), total cholesterol, % of esterified cholesterol and triglycerides in the liver were also determined. In addition, epididymal fat pad weights were measured.

[13] = not given; remark: listed apart in the source

C[C@]12CC[C@@H](O)C[C@H]1CC[C@@H]1[C@@H]2CC[C@]2(C)C(=O)CC[C@@H]12 [Alpha-ET, 5-beta-androstan-3-alpha-ol-17-one]
anti-obesity properties [1]: effective both in preventing and in arresting the development of obesity
oxidation at the C-3 position to ET-dione [2]: rapidly oxidized at the C-3 position to ET-dione
urinary excretion [3]: 3-5 mg per day
Blood Sugar [4]: reduced blood sugar
effectiveness vs DHEA in preventing the development of diabetes [4]: four time more effective than DHEA
plasma insulin concentrations [4]: increased plasma insulin concentrations
protective effect on the pancreas (granules in islet beta cells) [4]: protective effect on the pancreas
levels of conjugated alpha-ET relative to free alpha-ET ([5]; 30 minutes post-administration): 2-5 times
% W vs Control Day 28 (0.2% in diet, day 28): -9.8%

C[C@]12CC[C@H](O)C[C@H]1CC[C@@H]1[C@@H]2CC[C@]2(C)C(=O)CC[C@@H]12 [Beta-ET, 5-beta-androstan-3-beta-ol-17-one]
anti-obesity properties [1]: effective both in preventing and in arresting the development of obesity
oxidation at the C-3 position to ET-dione [2]: rapidly oxidized at the C-3 position to ET-dione
Blood Sugar [4]: reduced blood sugar
effectiveness vs DHEA in preventing the development of diabetes [4]: four time more effective than DHEA
plasma insulin concentrations [4]: increased plasma insulin concentrations
protective effect on the pancreas (granules in islet beta cells) [4]: protective effect on the pancreas

C[C@]12CC[C@H](O)CC1=CC[C@@H]1[C@@H]2CC[C@]2(C)C(=O)CC[C@@H]12 [DHEA, 3-beta-hydroxyandrost-5-en-17-one]
preventive effect on the development of diabetes [6]: marked preventive effect on the development of diabetes
rate of weight gain [7]: decreased the rate of weight gain
glucose tolerance [8]: improved glucose tolerance
hyperglycemia [8]: restored hyperglycemia to normal levels

C[C@]12CCC(=O)C[C@H]1CC[C@@H]1[C@@H]2CC[C@]2(C)C(=O)CC[C@@H]12 [ET-dione, 5-beta-androstanedione]
blood levels of free alpha-ET ([2]; animal and human pharmacokinetic data): increased blood levels of free alpha-ET
6 wk gain ([9]; 0.4% ET-dione in chow): 26.1 g
Body Weight ([9]; 0.4% ET-dione in chow, start): 19.6 ± 1.8 g
Body Weight ([9]; 0.4% ET-dione in chow, week 1): 26.7 ± 1.7 g
Body Weight ([9]; 0.4% ET-dione in chow, week 2): 29.8 ± 1.2 g
Body Weight ([9]; 0.4% ET-dione in chow, week 3): 34.4 ± 0.83 g
Body Weight ([9]; 0.4% ET-dione in chow, week 4): 36.5 ± 0.8 g
Body Weight ([9]; 0.4% ET-dione in chow, week 5): 42.2 ± 1.0 g
Body Weight ([9]; 0.4% ET-dione in chow, week 6): 45.7 ± 0.7 g
6 wk gain ([9]; 0.6% ET-dione in chow): 24.1 g
Body Weight ([9]; 0.6% ET-dione in chow, start): 18.1 ± 1.6 g
Body Weight ([9]; 0.6% ET-dione in chow, week 1): 23.7 ± 1.9 g
Body Weight ([9]; 0.6% ET-dione in chow, week 2): 27.3 ± 1.8 g
Body Weight ([9]; 0.6% ET-dione in chow, week 3): 31.9 ± 1.9 g
Body Weight ([9]; 0.6% ET-dione in chow, week 4): 34.7 ± 1.9 g
Body Weight ([9]; 0.6% ET-dione in chow, week 5): 39.1 ± 1.6 g
Body Weight ([9]; 0.6% ET-dione in chow, week 6): 42.2 ± 0.9 g
6 wk gain ([9]; 0.8% ET-dione in chow): 21.7 g
Body Weight ([9]; 0.8% ET-dione in chow, start): 18.1 ± 1.0 g
Body Weight ([9]; 0.8% ET-dione in chow, week 1): 23.3 ± 0.7 g
Body Weight ([9]; 0.8% ET-dione in chow, week 2): 26.4 ± 0.6 g
Body Weight ([9]; 0.8% ET-dione in chow, week 3): 31.1 ± 0.76 g
Body Weight ([9]; 0.8% ET-dione in chow, week 4): 33.5 ± 0.91 g
Body Weight ([9]; 0.8% ET-dione in chow, week 5): 37.0 ± 0.9 g
Body Weight ([9]; 0.8% ET-dione in chow, week 6): 39.8 ± 1.2 g
six-week weight gain, in words ([9]; ET-dione in chow, 0.4-0.8%): reduced the six-week weight gain
Blood Sugar ([10]; 0.4% ET-dione in chow, week 1): 149 ± 3.9
Blood Sugar ([10]; 0.4% ET-dione in chow, week 2): 156 ± 8.3
Blood Sugar ([10]; 0.4% ET-dione in chow, week 3): 151 ± 6.3
Blood Sugar ([10]; 0.4% ET-dione in chow, week 4): 148 ± 5.6
Blood Sugar ([10]; 0.4% ET-dione in chow, week 5): 148 ± 17.2
Blood Sugar ([10]; 0.4% ET-dione in chow, week 6): 168 ± 24.5
Blood Sugar ([10]; 0.6% ET-dione in chow, week 1): 143 ± 9.0
Blood Sugar ([10]; 0.6% ET-dione in chow, week 2): 124 ± 10.7
Blood Sugar ([10]; 0.6% ET-dione in chow, week 3): 151 ± 11.5
Blood Sugar ([10]; 0.6% ET-dione in chow, week 4): 152 ± 3.7
Blood Sugar ([10]; 0.6% ET-dione in chow, week 5): 159 ± 17
Blood Sugar ([10]; 0.6% ET-dione in chow, week 6): 195 ± 37
Blood Sugar ([10]; 0.8% ET-dione in chow, week 1): 128 ± 5.0
Blood Sugar ([10]; 0.8% ET-dione in chow, week 2): 126 ± 6.8
Blood Sugar ([10]; 0.8% ET-dione in chow, week 3): 147 ± 4.2
Blood Sugar ([10]; 0.8% ET-dione in chow, week 4): 148 ± 3.7
Blood Sugar ([10]; 0.8% ET-dione in chow, week 5): 137 ± 6.7
Blood Sugar ([10]; 0.8% ET-dione in chow, week 6): 184 ± 31
blood sugar level vs untreated mice, in words ([10]; ET-dione in chow, 0.4-0.8%): roughly half that of the untreated mice
blood levels of alpha-ET over equivalent dosages of alpha-ET [5]: significantly enhanced blood levels of alpha-ET
amounts of alpha-ET in blood, in words ([5]; 15 minutes to approximately 1 hour after administration): significantly higher amounts of alpha-ET
free alpha-ET levels, in words, vs alpha-ET or beta-ET administration ([5]; four hours post-administration): significantly higher than from alpha-ET or beta-ET administration
effectiveness on weight gain relative to alpha-ET (all concentrations tested): almost twice as effective as alpha-ET
effectiveness relative to alpha-ET (general statement) (rat, in vivo): equally or, in some cases, almost twice as effective
effectiveness vs 0.1% alpha- and beta-ET, in words [11]: comparable in effectiveness to 0.1% alpha- and beta-ET
RIA value for alpha-ET, initial [12]: approximately 40 nanograms per deciliter
Food consumption, Av. Wks 1-4 ([13]; 0.4% in diet, average weeks 1-4): 22.0 g/day
effectiveness in reducing food consumption relative to alpha-ET ([13]; second rat study): equally effective as alpha-ET in reducing food consumption

C[C@]12CC[C@@H](O)C[C@@H]1CC[C@@H]1[C@@H]2CC[C@]2(C)C(=O)CC[C@@H]12 [androsterone, reference compound]
effectiveness vs DHEA in preventing the development of diabetes [4]: not

C[C@]12CC[C@H](O)C[C@@H]1CC[C@@H]1[C@@H]2CC[C@]2(C)C(=O)CC[C@@H]12 [epiandrosterone, reference compound]
effectiveness vs DHEA in preventing the development of diabetes [4]: not
